These results are taken from patent publication US7232690B1, “Method and device for detecting and isolating pharmacological compounds being contained in substance mixtures” (LTS Lohmann Therapie-Systeme AG, priority 1999, dated 2007).

pKi: −log10 of the molar value. Where two headings read alike, the source gives them in different places.

Test [1] has as its target T1, Thrombin (Homo sapiens, UniProt P00734). Conditions: thrombin inhibitor CRC 220 of Behringwerke; cited from earlier work.
The next test deals with T2, Trypsin (Bos taurus, UniProt P00760).
T2 sequence (P00760 24-246): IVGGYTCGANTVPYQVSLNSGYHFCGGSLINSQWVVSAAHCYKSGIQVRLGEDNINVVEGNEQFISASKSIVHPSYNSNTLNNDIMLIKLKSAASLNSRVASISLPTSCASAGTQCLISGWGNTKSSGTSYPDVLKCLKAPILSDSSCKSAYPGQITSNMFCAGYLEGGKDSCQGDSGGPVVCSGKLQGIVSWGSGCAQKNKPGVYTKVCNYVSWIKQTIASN
The test can be described thus: Trypsin inhibition constant (Ki). The format is biochemical. Conditions: read-out: Ki [μmol/l] Trypsin.

Test [2] concerns the target T1, Thrombin. The test can be described thus: Thrombin inhibition constant (Ki). Type of test: biochemical. Conditions: read-out: Ki [μmol/l] Thrombin.
For a further test, the system named is serine protease trypsin. The test can be described thus: Ultrafiltration target-binding test of non-equimolar amidinophenylalanine mixture with trypsin (Example 2). The note with it: applied 6 8.4, 7 41.25, 10 2.5 μmol/l. As for the experimental part:
(§1) Incubation of the substance library and the inhibitor with thrombin took place at room temperature within 1 hour; solvent: 0.9% of NaCl in H2O. The separation of the protein-ligand complexes formed was accomplished by ultrafiltration (centrifugal). All filtration procedures and washes were carried out until dryness of the filters.
(§2) Filter: Microcon 10 (Amicon)
(§3) Centrifugation conditions: 9981×g, room temperature
(§4) Washing steps: 2×, each with 150 μl of 0.9% NaCl in H2O, 4° C.
(§5) Ultrafiltration and analysis of the filtrate were followed by washing steps and the liberation of the ligand (the active chemical substance) from the protein-ligand complex retained on the filter by treatment with 200 μl of water/methanol/TFA (49.5/49.5/1) at room temperature.
(§6) The blind sample (without thrombin) was treated analogously in all steps so that a comparison of the filtrates was possible. The filtrates obtained in all steps were dried by means of a speed-VAC concentrator, and later dissolved in the corresponding HPLC flow agent of defined amount applying ultrasound and agitation.
Identification of the ligands was accomplished by analytic HPLC: stationary phase Hypersil C 18 BDS, 3 μm, 150*0.3 mm, Fusica (LC Packings)—mobile phase: acetonitrile/water/TFA (35/65/0.01), isocratic, 5 μL/min, λ=[…].
The trypsin inhibitors of 3-amidinophenylalanine represented in the following by their structural formulae, were used as chemical substances, and the serine protease trypsin as target:
The experiments were performed as described in Example 1.

A further test has as its target serine protease thrombin (Homo sapiens, UniProt P00734). The test can be described thus: Ultrafiltration target-binding test of substance library with thrombin, HPLC of filtrates (Example 1). The note with it: 10 μmol/l each substance, 5 μmol/l thrombin, 1 hour room temperature. As to the method: As a target, the serine protease thrombin was chosen.
The examined assays were of the following composition:
as §1, §2, §3, §4, §5, §6
Identification of the ligands was accomplished by analytic HPLC: stationary phase Hypersil C 18 BDS, 3 μm, 150*0.3 mm, Fusica (LC Packings)—mobile phase: acetonitrile/water/TFA (35/65/0.01), isocratic, 5 μL/min, λ=[…]. […]

For the compound `COc1cc(C)c(S(=O)(=O)N[C@@H](CC(=O)O)C(=O)N[C@H](Cc2ccc(C(=N)N)cc2)C(=O)N2CCCCC2)c(C)c1C` [CRC 220], at Thrombin [1], the pKi was 8.60.

Regarding `CS(=O)(=O)N1CCN(C(=O)C(Cc2cccc(C(=N)N)c2)NS(=O)(=O)c2ccc3ccccc3c2)CC1` (stereo not shown) [Substance 6], the pKi on Trypsin is 7.17. Besides, the pKi at Thrombin [2] is 8.68. Also, in the test on serine protease trypsin (Sample 261, without trypsin), the “1st Wash” value is 0.71 µmol/L, the “2nd Wash” value came to 0.05 µmol/L, the Filtrate was found to be 7.44 µmol/L and the Liberation was determined as 0.01 µmol/L. In addition, in the test with serine protease trypsin (Sample 262, trypsin 50 μmol/l), the “1st Wash” value was found to be 0.23 µmol/L, the “2nd Wash” value is 0.15 µmol/L, the Filtrate came to 0.67 µmol/L and the Liberation is 6.09 µmol/L.

As for `N=C(N)c1cccc(CC(NS(=O)(=O)c2ccc3ccccc3c2)C(=O)N2CCCCC2)c1` (stereo not shown) [Substance 7], the pKi at Thrombin [2] was 7.19. In addition, in the test on serine protease trypsin (Sample 261, without trypsin), the “1st Wash” value was 3.13 µmol/L, the “2nd Wash” value was determined as 0.26 µmol/L, the Filtrate amounted to 31.57 µmol/L and the Liberation amounted to 0.13 µmol/L. Also, in the test with serine protease trypsin (Sample 262, trypsin 50 μmol/l), the “1st Wash” value amounted to 3.68 µmol/L, the “2nd Wash” value was 1.29 µmol/L, the Filtrate turned out to be 22.22 µmol/L and the Liberation is 8.49 µmol/L.

As for `CCOC(=O)C1CCN(C(=O)C(Cc2cccc(C(=N)N)c2)NS(=O)(=O)c2ccc3ccccc3c2)CC1` (stereo not shown) [Substance 10], on Trypsin, the pKi was 7.70. Besides, the pKi at Thrombin [2] is 6.44. Also, in the test with serine protease trypsin (Sample 261, without trypsin), the “1st Wash” value was found to be 0.02 µmol/L, the “2nd Wash” value was found to be 0.0013 µmol/L, the Filtrate worked out at 0.05 µmol/L and the Liberation was determined as 0.0011 µmol/L. Further, in the test with serine protease trypsin (Sample 262, trypsin 50 μmol/l), the “1st Wash” value worked out at 0.0058 µmol/L, the “2nd Wash” value was found to be 0.0012 µmol/L, the Filtrate was 0.02 µmol/L and the Liberation amounted to 0.53 µmol/L.

On to `Cl.Clc1cccc(Cl)c1NC1=NCCN1` [clonidin-HCL], for which the “Binding to target thrombin (difference between main experiment and blind sample)” value on serine protease thrombin was “not an inhibitor”.
